Consider 23 molecules from ChEMBL document CHEMBL1147766, “Structure-based design of novel groups for use in the P1 position of thrombin inhibitor scaffolds. Part 1: Weakly basic azoles” (Bioorg Med Chem Lett, 2006).

A word on the Cmax: it is the peak of the concentration-time curve. For orientation: pKi means the Ki on a negative log10 scale, so that one unit is a factor of ten. Read a high pKi as a small Ki. One may read the half-life as the time in which the quantity being followed falls by half. Read a high half-life as slow decline. For orientation: Ki means a measure of affinity in units of concentration, obtained from inhibition or displacement. Read a high Ki as a looser hold on the target.

pKi: −log10 of the molar value.

Series [1] is described as follows: Cmax in dog administered with 4 mg/kg, po. To be noted: in vivo. In kind it is ADME, organism-based, Canis lupus familiaris. Details: dose 4 mg/kg, route oral.
In series [2] the target is T1, Prothrombin (Homo sapiens, UniProt P00734). Briefly: Binding affinity to thrombin.
The nature of series [3]: Half life in dog administered with 4 mg/kg, po. Details: dose 4 mg/kg, route oral. To be noted: in vivo. The format is ADME, organism-based, Canis lupus familiaris.
In another series the target is Trypsin (Homo sapiens, UniProt P07477+P07478+P35030). Briefly: Binding affinity to trypsin. The format is protein assay.
Series [4] is described as follows: Cmax in dog administered with 5 mg/kg, po. The conditions noted are these: in vivo. Details: dose 5 mg/kg, route oral. In kind it is ADME, organism-based, Canis lupus familiaris.
Series [5] deals with T1, Prothrombin. To be noted: Plasma.
Description: Anticoagulant potency in human plasma

For `Cc1nc[nH]c1CNC(=O)Cn1c(C)cnc(NCCc2ccccc2)c1=O`, in series [1], the concentration peaked (Cmax) at 1400 nM. At Prothrombin [2], the pKi was 7.28. The half-life in series [3] was 2 h.

Molecule `Cc1ccc(NS(=O)(=O)Cc2ccccc2)c(=O)n1CC(=O)NCc1c[nH]cn1` had a pKi at Prothrombin [2] of 6.77. For the same molecule, the Ki on Trypsin stood at 314 µM.

Consider `Cc1nc[nH]c1CNC(=O)Cn1c(C)cnc(NCCc2ccccn2)c1=O`, for which the pKi on Prothrombin [2] was 7.66.

In series [4], `Cc1[nH]cnc1/C=C/CNC(=O)[C@@H]1CCCN1C(=O)[C@H](N)C(c1ccccc1)c1ccccc1` displayed a Cmax of 550 nM. Also, at Prothrombin [2], the pKi was 9.00. For the same molecule, the Ki at Trypsin turned out to be 0.1 µM. This molecule registered a 2aPTT on Prothrombin [5] of 0.32 µM.

Take `N[C@@H](C(=O)N1CCC[C@H]1C(=O)NCCCc1c[nH]cn1)C(c1ccccc1)c1ccccc1`: the pKi at Prothrombin [2] was 7.77. The same molecule registered a Ki on Trypsin of 0.24 µM.

For the molecule `N[C@@H](C(=O)N1CCC[C@H]1C(=O)NCCc1c[nH]cn1)C(c1ccccc1)c1ccccc1`, on Prothrombin [2], the pKi was 6.70. Besides, on Trypsin, the Ki was 2.3 µM.

At Prothrombin [2], `Nc1ncc(CCCNC(=O)[C@@H]2CCCN2C(=O)[C@H](N)C(c2ccccc2)c2ccccc2)s1` showed a pKi of 6.70. At Trypsin, this molecule had a Ki of 32 µM.

`N[C@@H](C(=O)N1CCC[C@H]1C(=O)NC/C=C/c1c[nH]cn1)C(c1ccccc1)c1ccccc1`: the pKi at Prothrombin [2] was 8.70. This molecule also returned a Ki on Trypsin of 0.14 µM.

On Prothrombin [2], `Cc1ccc(NS(=O)(=O)Cc2ccccc2)c(=O)n1CC(=O)NC/C=C/c1cnc(N)s1` showed a pKi of 5.74. This molecule gave a Ki at Trypsin greater than 1000 µM.

As to `Nc1ncc(/C=C/CNC(=O)[C@@H]2CCCN2C(=O)[C@H](N)C(c2ccccc2)c2ccccc2)s1`, the pKi at Prothrombin [2] is 7.52. For the same molecule, the Ki at Trypsin turned out to be 178 µM.

Molecule `Nc1ncc(CCNC(=O)[C@@H]2CCCN2C(=O)[C@H](N)C(c2ccccc2)c2ccccc2)s1` showed a pKi on Prothrombin [2] of 6.71. The molecule further yielded a Ki at Trypsin of 59 µM.

At Prothrombin [2], `N[C@@H](C(=O)N1CCC[C@H]1C(=O)NCC#Cc1c[nH]cn1)C(c1ccccc1)c1ccccc1` had a pKi of 7.89. For the same molecule, the Ki on Trypsin was 6 µM.

As for `Cc1ccc(NS(=O)(=O)Cc2ccccc2)c(=O)n1CC(=O)NCc1cnc(N)s1`, the Ki on Trypsin was greater than 1000 µM.

The molecule `Cc1ccc(NS(=O)(=O)Cc2ccccc2)c(=O)n1CC(=O)NCCCc1cnc(N)s1` gave a pKi at Prothrombin [2] of 6.35. In addition, at Trypsin, the Ki was found to be 124 µM.

Turning to `Cc1ccc(NS(=O)(=O)Cc2ccccc2)c(=O)n1CC(=O)NCCCc1c[nH]cn1`, the pKi at Prothrombin [2] was 7.47. The molecule further showed a Ki on Trypsin of 17 µM.

`Cc1[nH]cnc1CNC(=O)[C@@H]1CCCN1C(=O)[C@H](N)C(c1ccccc1)c1ccccc1` had a pKi at Prothrombin [2] of 7.19. The same molecule returned a Ki on Trypsin of 9.6 µM.

`Cc1nc(N)sc1CNC(=O)Cn1c(C)ccc(NS(=O)(=O)Cc2ccccc2)c1=O` showed a pKi at Prothrombin [2] of 8.00. The molecule also showed a Ki on Trypsin of 6.5 µM.

The molecule `Cc1cnc(NCCc2ccccc2)c(=O)n1CC(=O)NC[C@H]1CC[C@H](N)CC1` gave a pKi on Prothrombin [2] of 8.19.

Consider `N[C@@H](C(=O)N1CCC[C@H]1C(=O)NCc1c[nH]cn1)C(c1ccccc1)c1ccccc1`, for which the pKi on Prothrombin [2] is 6.42. Also, the Ki on Trypsin worked out at 36 µM.

Regarding `Nc1ncc(CNC(=O)[C@@H]2CCCN2C(=O)[C@H](N)C(c2ccccc2)c2ccccc2)s1`, the pKi at Prothrombin [2] is 6.46. Also, on Trypsin, the Ki came out at 59 µM.

`Cc1[nH]cnc1C#CCNC(=O)[C@@H]1CCCN1C(=O)[C@H](N)C(c1ccccc1)c1ccccc1` had a pKi at Prothrombin [2] of 8.22. At Trypsin, the Ki turned out to be 7.2 µM.

`Cc1ccc(NS(=O)(=O)Cc2ccccc2)c(=O)n1CC(=O)NC/C=C/c1c[nH]cn1` gave a pKi on Prothrombin [2] of 6.84. The molecule also displayed a Ki on Trypsin of 21 µM.

`Cc1nc[nH]c1CNC(=O)Cn1c(C)ccc(NS(=O)(=O)Cc2ccccc2)c1=O`: the pKi at Prothrombin [2] was 8.10. The molecule also displayed a Ki on Trypsin of 43 µM.
